Experimental findings from patent publication US20240024515A1, “COMBINATION TREATMENT” (priority 2022, published 2024) are described below.

For assay [1], the target named is CFTR (Homo sapiens, UniProt P13569). It is filed as cell-based. As to conditions: no LV.
Assay [2] deals with CFTR. In kind it is cell-based, human. To be noted: no LV. The method, then:
To analyse the functionality of rSIV.F/HN-CFTR-expressed channels, CFTR-mediated chloride current was measured in an Ussing chamber using rSIV.F/HN-CFTR (vGM058) transduced ALI cultures. First, sodium channels (ENaC) were blocked using amiloride, followed by stimulation of CFTR using forskolin and the change in short circuit current (Δlsc) was calculated (both peak and plateau values). In some experiments, ivacaftor, a small molecule CFTR potentiator which increases channel open probability, was added for additional stimulation of CFTR current. Finally, the chloride current was blocked with CFTR-Inhibitor 172 (FIG. 3D).
To compare the functionality of vGM058 and vGM244, CFTR-mediated chloride current was measured in an Ussing chamber using class II ALI cultures transduced with both vGM058 and vGM244.
To analyse the functionality of rSIV.F/HN-CFTR-expressed channels, CFTR-mediated chloride current was measured in an Ussing chamber using rSIV.F/HN-CFTR (vGM244) transduced class II ALI cultures (Table 3).

Setting [3] is: Table 2, Class I CFTR KO ALI, vGM058 study.
The mark [4] stands for this setting: Table 4, Class I CFTR KO ALI, vGM244 study.
Setting [5] is: Table 1, Class II F508del/F508del ALI, vGM058 study.
Where [6] appears, read: Table 3, Class II F508del/F508del ALI, vGM244 study.

Structures are written as SMILES. Like-named read-outs stand apart in the source and are kept apart here.

CFTR (Homo sapiens, UniProt P13569), sequence (P13569 whole entry): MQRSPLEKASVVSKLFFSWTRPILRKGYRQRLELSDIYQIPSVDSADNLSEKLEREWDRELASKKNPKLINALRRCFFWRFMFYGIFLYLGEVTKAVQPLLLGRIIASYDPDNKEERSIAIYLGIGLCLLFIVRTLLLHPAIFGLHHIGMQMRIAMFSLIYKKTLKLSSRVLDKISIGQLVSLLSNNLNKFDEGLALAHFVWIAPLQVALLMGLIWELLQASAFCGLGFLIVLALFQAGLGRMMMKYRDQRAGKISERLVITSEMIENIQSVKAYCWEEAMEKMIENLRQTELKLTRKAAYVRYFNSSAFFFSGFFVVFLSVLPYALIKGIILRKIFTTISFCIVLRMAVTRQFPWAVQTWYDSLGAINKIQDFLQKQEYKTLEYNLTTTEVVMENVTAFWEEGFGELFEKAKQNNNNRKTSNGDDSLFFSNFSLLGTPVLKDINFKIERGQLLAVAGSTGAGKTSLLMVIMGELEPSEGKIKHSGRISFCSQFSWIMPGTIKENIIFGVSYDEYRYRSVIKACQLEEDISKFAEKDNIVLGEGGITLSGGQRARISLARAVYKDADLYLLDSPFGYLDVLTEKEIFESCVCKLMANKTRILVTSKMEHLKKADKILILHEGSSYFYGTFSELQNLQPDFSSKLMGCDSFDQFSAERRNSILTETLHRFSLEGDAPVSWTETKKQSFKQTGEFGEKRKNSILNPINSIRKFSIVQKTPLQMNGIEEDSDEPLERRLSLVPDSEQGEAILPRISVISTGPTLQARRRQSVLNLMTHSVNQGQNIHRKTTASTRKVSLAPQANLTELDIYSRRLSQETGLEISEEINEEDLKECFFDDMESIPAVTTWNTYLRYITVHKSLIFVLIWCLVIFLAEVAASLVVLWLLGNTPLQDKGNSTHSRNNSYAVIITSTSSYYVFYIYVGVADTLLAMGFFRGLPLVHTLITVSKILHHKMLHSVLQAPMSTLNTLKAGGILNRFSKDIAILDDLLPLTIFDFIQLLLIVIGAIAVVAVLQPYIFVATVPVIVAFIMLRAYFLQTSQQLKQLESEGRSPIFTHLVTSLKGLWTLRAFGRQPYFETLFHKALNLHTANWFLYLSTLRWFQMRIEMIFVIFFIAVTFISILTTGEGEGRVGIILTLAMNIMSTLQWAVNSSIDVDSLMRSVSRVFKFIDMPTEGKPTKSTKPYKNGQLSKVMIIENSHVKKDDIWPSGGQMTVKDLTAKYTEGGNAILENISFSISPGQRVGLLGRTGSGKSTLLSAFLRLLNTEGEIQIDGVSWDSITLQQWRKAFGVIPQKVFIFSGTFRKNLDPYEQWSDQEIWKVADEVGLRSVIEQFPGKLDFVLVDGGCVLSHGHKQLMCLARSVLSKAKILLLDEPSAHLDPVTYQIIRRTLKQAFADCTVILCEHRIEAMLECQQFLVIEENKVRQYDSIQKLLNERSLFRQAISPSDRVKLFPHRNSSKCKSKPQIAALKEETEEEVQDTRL

Consider `CC(C)(C)c1cc(C(C)(C)C)c(NC(=O)c2c[nH]c3ccccc3c2=O)cc1O` [Iva, ivacaftor], for which the ΔCFTR-inh172peak is recorded as −3.0 ± 0.2 on CFTR [1] (setting [3]), −0.2 ± 0.2 at CFTR [1] (setting [4]), −2.1 ± 0.3 with CFTR [2] (setting [5]) and −1.6 ± 0.1 in the assay on CFTR [2] (setting [6]). The ΔCFTR-inh172plateau is recorded as −3.0 ± 0.2 at CFTR [1] (setting [3]), −0.2 ± 0.2 on CFTR [1] (setting [4]), −2.1 ± 0.3 in the assay with CFTR [2] (setting [5]) and −1.6 ± 0.1 in the assay on CFTR [2] (setting [6]). The ΔFskpeak is −1.9 ± 0.1 on CFTR [1] (setting [3]), −0.7 ± 0.2 at CFTR [1] (setting [4]), −0.1 ± 0.3 with CFTR [2] (setting [5]) and 1.0 ± 0.3 with CFTR [2] (setting [6]). Also, the ΔFskplateau on CFTR [1] (setting [3]) is recorded as −1.9 ± 0.1; on CFTR [1] (setting [4]) it was −0.7 ± 0.2; in the assay with CFTR [2] (setting [5]) it was −0.1 ± 0.3; with CFTR [2] (setting [6]), 1.0 ± 0.3.
